Patent publication US20250092064A1, “BENZOTRIAZOLE COMPOUND” (DAIICHI SANKYO COMPANY, LIMITED, priority 2022, published 2025)

Key:
[1] = biological target: binding between Nrf2 and Keap1 (Homo sapiens (Human), UniProt Q14145); experiment: FP assay (in vitro): inhibition of Nrf2-Keap1 binding by fluorescence polarization; details: GST-fused human Keap1 (325-642) 20 nM, FITC-labeled Nrf2 peptide 10 nM, 2 hr at room temperature
[2] = Measurement test of plasma drug concentration after oral administration in rats; format: in vivo; details: male SD rats, 10 mg/2 mL/kg in 0.5% methylcellulose; for AUC(0-t): rat, plasma, 10 mg/kg, read-out: AUC0-24
Experimental: 10 mg/2 mL/kg of the test compound suspended in 0.5% methylcellulose solution were force-fed to Male SD rats (7 weeks old, Japan SLC). Blood was collected from the jugular vein using a syringe with heparin at 0.5, 1, 2, 4, 6, and 24 hr after administration. After blood collection, to 20 μL of centrifuged plasma was added an equal volume of acetonitrile followed by 200 μL of internal standard (IS) solution. After agitation, all the supernatant after centrifugation was filtered, and the collected filtrate was used as the assay sample. Equal volumes of the test compound solution prepared in acetonitrile were added to blank plasma, and the samples processed in the same manner as above were used as samples for the calibration curve. The prepared samples were measured using LC/MS/MS, and the area under the blood concentration-time curve (AUC) was calculated from the compound concentration in plasma.

[3] = system: NQO1 activity in Hepa1c1c7 cells; experiment: NAD(P)H: quinone oxidoreductase-1 (NQO1) enzyme induction assay (in vitro); format: cell-based, mouse; details: Mus musculus, Hepa-1c1c7, NQO1 activity with 400 nM test compound as a ratio from the base without compound, about 48 hr
How it was run: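 Mouse Hepa1c1c7 hepatoma cells treated 48 hr with 400 nM compound (final). NQO1 activity in lysates read by absorbance at 610 nm; value is background-subtracted activity ratio versus untreated cells.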

Chain of binding between Nrf2 and Keap1 (Q14145 325-624 limits assumed): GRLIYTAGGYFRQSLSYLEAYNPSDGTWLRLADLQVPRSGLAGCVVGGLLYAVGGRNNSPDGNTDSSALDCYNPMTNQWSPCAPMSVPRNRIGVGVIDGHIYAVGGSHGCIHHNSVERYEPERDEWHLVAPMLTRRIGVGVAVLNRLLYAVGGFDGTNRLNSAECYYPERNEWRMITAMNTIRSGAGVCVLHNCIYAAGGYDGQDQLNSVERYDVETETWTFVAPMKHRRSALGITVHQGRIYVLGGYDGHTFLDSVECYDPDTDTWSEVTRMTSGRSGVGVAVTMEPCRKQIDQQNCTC

IC50 [1] | maximam plasma concentration [2] | AUC(0-t) [2] | Structure (SMILES) | fold induction at 0.4 µM [3]
10 to 30 nM | 0.006 µM | 0.035 µM·h | CC[C@@H]1CN(Cc2cc([C@@H](CC(=O)O)c3ccc4c(nnn4C)c3C)cc3c2CCC3)S(=O)(=O)c2cc(Cl)cnc2O1 [Example 5, (3R)-3-(7-{[(4R)-8-Chloro-4-ethyl-1,1-dioxido-3,4-dihydro-2H-pyrido[2,3-b][1,4,5]oxathiazepin-2-yl]methyl}-2,3-dihydro-1H-inden-5-yl)-3-(1,4-dimethyl-1H-benzotriazol-5-yl)propanoic acid] | > 5
≤ 10 nM | 0.009 µM | 0.03 µM·h | CC[C@@H]1CN(Cc2cc([C@H](CC(=O)O)c3ccc4c(nnn4C)c3C)cc3ccsc23)S(=O)(=O)c2cc(Cl)cnc2O1 [Example 7, (3S)-3-(7-{[(4R)-8-Chloro-4-ethyl-1,1-dioxido-3,4-dihydro-2H-pyrido[2,3-b][1,4,5]oxathiazepin-2-yl]methyl}-1-benzothiophen-5-yl)-3-(1,4-dimethyl-1H-benzotriazol-5-yl)propanoic acid] | > 5
≤ 10 nM | 0.005 µM | 0.023 µM·h | CC[C@@H]1CN(Cc2cc([C@@H](CC(=O)O)c3ccc4c(nnn4C)c3C)cc3ccsc23)S(=O)(=O)c2cc(Cl)cnc2O1 [Example 8, (3R)-3-(7-{[(4R)-8-Chloro-4-ethyl-1,1-dioxido-3,4-dihydro-2H-pyrido[2,3-b][1,4,5]oxathiazepin-2-yl]methyl}-1-benzothiophen-5-yl)-3-(1,4-dimethyl-1H-benzotriazol-5-yl)propanoic acid] | > 5
30 to 100 nM | – | – | CC[C@@H]1CN(Cc2cc([C@H](CC(=O)O)c3cc(OC(F)F)c4c(nnn4C)c3C)cc3ccsc23)S(=O)(=O)c2cc(Cl)cnc2O1 [Example 108, (3S)-3-(7-{[(4R)-8-Chloro-4-ethyl-1,1-dioxido-3,4-dihydro-2H-pyrido[2,3-b][1,4,5]oxathiazepin-2-yl]methyl}-1-benzothiophen-5-yl)-3-[7-(difluoromethoxy)-1,4-dimethyl-1H-benzotriazol-5-yl]propanoic acid] | > 5
≤ 10 nM | – | – | CCOc1ccc2c(n1)O[C@H](CC)CN(Cc1cc([C@H](CC(=O)O)c3ccc4c(nnn4C)c3C)cc3ccsc13)S2(=O)=O [Example 111, (3S)-3-(1,4-Dimethyl-1H-benzotriazol-5-yl)-3-(7-{[(4R)-7-ethoxy-4-ethyl-1,1-dioxido-3,4-dihydro-2H-pyrido[2,3-b][1,4,5]oxathiazepin-2-yl]methyl}-1-benzothiophen-5-yl)propanoic acid] | 3 to 5
≤ 10 nM | – | – | CCOc1ccc2c(n1)O[C@H](CC)CN(Cc1cc([C@@H](CC(=O)O)c3ccc4c(nnn4C)c3C)cc3ccsc13)S2(=O)=O [Example 112, (3R)-3-(1,4-Dimethyl-1H-benzotriazol-5-yl)-3-(7-{[(4R)-7-ethoxy-4-ethyl-1,1-dioxido-3,4-dihydro-2H-pyrido[2,3-b][1,4,5]oxathiazepin-2-yl]methyl}-1-benzothiophen-5-yl)propanoic acid] | 3 to 5

The next lines start with the molecule.

Structure (SMILES) | IC50 [1] | maximam plasma concentration [2] | AUC(0-t) [2] | fold induction at 0.4 µM [3]
CC[C@@H]1CN(Cc2cc([C@H](CC(=O)O)c3ccc4c(nnn4C)c3C)cc3c2CCC3)S(=O)(=O)c2cc(Cl)cnc2O1 [Example 4, (3S)-3-(7-{[(4R)-8-Chloro-4-ethyl-1,1-dioxido-3,4-dihydro-2H-pyrido[2,3-b][1,4,5]oxathiazepin-2-yl]methyl}-2,3-dihydro-1H-inden-5-yl)-3-(1,4-dimethyl-1H-benzotriazol-5-yl)propanoic acid] | ≤ 10 nM | 0.029 µM | 0.05 µM·h | > 5
CC[C@@H]1CN(Cc2cc(C(CC(=O)O)c3cc(C4CC4)c4c(nnn4C)c3C)cc3[nH]ccc23)S(=O)(=O)c2cc(Cl)cnc2O1 (stereo partly drawn) [Example 103, 3-(4-{[(4R)-8-Chloro-4-ethyl-1,1-dioxido-3,4-dihydro-2H-pyrido[2,3-b][1,4,5]oxathiazepin-2-yl]methyl}-1H-indol-6-yl)-3-(7-cyclopropyl-1,4-dimethyl-1H-benzotriazol-5-yl)propanoic acid] | ≤ 10 nM | – | – | > 5
CC[C@@H]1CN(Cc2cc(C(CC(=O)O)c3cc(C4CC4)c4c(nnn4C)c3C)cc3[nH]ccc23)[C@@H](C)c2ncccc2O1 (stereo partly drawn) [Example 104, 3-(7-Cyclopropyl-1,4-dimethyl-1H-benzotriazol-5-yl)-3-(4-{[(2R,5S)-2-ethyl-5-methyl-2,3-dihydropyrido[2,3-f][1,4]oxazepin-4(5H)-yl]methyl}-1H-indol-6-yl)propanoic acid] | 10 to 30 nM | – | – | > 5
CC[C@@H]1CN(Cc2cc([C@@H](CC(=O)O)c3cc(C4CC4)c4c(nnn4C)c3C)cc3c2CCC3)[C@@H](C)c2ncccc2O1 [Example 105, (3R)-3-(7-Cyclopropyl-1,4-dimethyl-1H-benzotriazol-5-yl)-3-(7-{[(2R,5S)-2-ethyl-5-methyl-2,3-dihydropyrido[2,3-f][1,4]oxazepin-4(5H)-yl]methyl}-2,3-dihydro-1H-inden-5-yl)propanoic acid] | 10 to 30 nM | – | – | > 5
CC[C@@H]1CN(Cc2cc([C@H](CC(=O)O)c3cc(C4CC4)c4c(nnn4C)c3C)cc3c2CCC3)[C@@H](C)c2ncccc2O1 [Example 106, (3S)-3-(7-Cyclopropyl-1,4-dimethyl-1H-benzotriazol-5-yl)-3-(7-{[(2R,5S)-2-ethyl-5-methyl-2,3-dihydropyrido[2,3-f][1,4]oxazepin-4(5H)-yl]methyl}-2,3-dihydro-1H-inden-5-yl)propanoic acid] | ≤ 10 nM | – | – | > 5
CC[C@@H]1CN(Cc2cc(C(CC(=O)O)c3cc(C4CC4)c4c(nnn4C)c3C)cc3c2OCC3)[C@@H](C)c2ncccc2O1 (stereo partly drawn) [Example 107, 3-(7-Cyclopropyl-1,4-dimethyl-1H-benzotriazol-5-yl)-3-(7-{[(2R,5S)-2-ethyl-5-methyl-2,3-dihydropyrido[2,3-f][1,4]oxazepin-4(5H)-yl]methyl}-2,3-dihydro-1-benzofuran-5-yl)propanoic acid] | 10 to 30 nM | – | – | > 5
CC[C@@H]1CN(Cc2cc(C(CC(=O)O)c3cc(C4CC4)c4c(nnn4C)c3C)cc3ccoc23)[C@@H](C)c2ncccc2O1 (stereo partly drawn) [Example 109, 3-(7-Cyclopropyl-1,4-dimethyl-1H-benzotriazol-5-yl)-3-(7-{[(2R,5S)-2-ethyl-5-methyl-2,3-dihydropyrido[2,3-f][1,4]oxazepin-4(5H)-yl]methyl}-1-benzofuran-5-yl)propanoic acid] | 30 to 100 nM | – | – | > 5
CC[C@@H]1CN(Cc2cc(C(CC(=O)O)c3cc(C4CC4)c4c(nnn4C)c3C)cc3ccoc23)S(=O)(=O)c2cc(Cl)cnc2O1 (stereo partly drawn) [Example 110, 3-(7-{[(4R)-8-Chloro-4-ethyl-1,1-dioxido-3,4-dihydro-2H-pyrido[2,3-b][1,4,5]oxathiazepin-2-yl]methyl}-1-benzofuran-5-yl)-3-(7-cyclopropyl-1,4-dimethyl-1H-benzotriazol-5-yl)propanoic acid] | 30 to 100 nM | – | – | > 5
